# Assay results taken from patent US9555050B2 (BIOGEN MA INC., priority 2012, dated 2017).
# pIC50: −log10 of the molar value.
# Target: T1, Human ATX protein (Homo sapiens, UniProt Q13822)
# T1 construct: made in house
# Assay: ATX biochemical FRET assay with FS-3 substrate
# Details: FS-3 substrate 2 μM, ATX 1.0 μg/mL, 30 min preincubation, 2 hours at room temperature
# From the text: ATX (Autotaxin) is a 125 KDa glycoprotein with lysophospholipase D (LPLD) activity that generates the bioactive lipid lysophosphatidic acid (LPA) from lysophosphatidylcholine (LPC). The ATX biochemical assay utilizes a FRET (fluorescence resonance energy transfer) technology platform. The fluorescence signal of FRET substrate FS-3 is quenched due to intra-molecular FRET of a fluorophore to a non-fluorescing quencher (Ferguson, C. G., et al., Org Lett. 2006 May 11; 8(10): 2023-2026, which is incorporated by reference in its entirety). ATX catalyzes the hydrolysis of the substrate which separates the dabsyl quencher from the fluorescein reporter, which becomes fluorescent. The reaction is monitored by a SpectraMax M5 (Molecular Devices, Sunnyvale, Calif.) with at excitation wavelength 485 nm and emission wavelength […].
# Fatty acid free-BSA (Sigma A8806): 10 mg/mL in H2O, stored at 4° C.
# 2×ATX assay buffer: 100 mM Tris, 280 mM NaCl, 10 mM KCl, 2 mM CaCl2, 2 mM MgCl2, pH 7.4.
# Human ATX protein: expressed and purified in house. Stored at −80° C.
# Substrate FS-3 (Echelon, L-2000): 100 μg in 77.74.L H2O (1 mM stock), stored at −20° C.
# 384-well flat bottom plates—Corning #3575.
# Compound dilution—All compounds were provided at 10 mM in 100% DMSO. In the first well, 2 μL of 10 mM compound was added to 78 μL of DMSO (1:40 dilution). In subsequent wells 3-fold dilution (total 10 dilutions) were performed.
# 1×ATX assay buffer was made up with a final concentration of 1 mg/mL fatty acid free-BSA using 2×ATX assay buffer, 10 mg/ml fatty acid free-BSA and ddH2O.
# ATX protein was diluted with 1×ATX assay buffer to a concentration of 1.32 μg/mL (1.32×). 38 μL was added per well to the assay plate. The final concentration of ATX in the reaction as 1.0 μg/mL.
# 2 μL per well of compounds was transferred to provide the desired concentration. The plate was centrifuged, then incubated at room temperature for 30 minutes on the shaker.
# FS-3 was diluted with 1×ATX assay buffer to a concentration of FS-3 of 10 μM (5×). Then, 10 μL was added per well to the assay plate. The final concentration of FS-3 in the reaction was 2 μM. The plate was centrifuged. The plate was kept shaking at room temperature for 2 hours. Because FS-3 substrate is light sensitive, plates were kept covered and protected from light.
# Fluorescence was measured using SpectraMax M5 (excitation at 485 nm/emission at 538 nm, top read).
row,Structure (SMILES),pIC50
1,"C[C@@H](c1ccc2c(C(F)F)c(O[C@H]3CC[C@@H](C)CC3)ccc2c1)N1CCC[C@H](CC(=O)O)C1 [Example 91, 2-((3R)-1-((S)-1-(6-((cis-4-Methylcyclohexyl)oxy)-5-(difluoromethyl)naphthalen-2-yl)ethyl)piperidin-3-yl)acetic acid]",≥ 7.00
2,"CC(C)CC(NC1CC(C(=O)O)C1(C)C)c1ccc2c(C(F)(F)F)c(O[C@H]3CC[C@@H](C(F)(F)F)CC3)ccc2c1 (relative stereo) [Example 40, 2,2-dimethyl-3-(3-methyl-1-(5-(trifluoromethyl)-6-((cis)-4-(trifluoromethyl)cyclohexyloxy)naphthalen-2-yl)butylamino)cyclobutanecarboxylic acid]",≥ 6.60
3,C[C@H]1CC[C@@H](Oc2ccc3cc(CN4CCOC(CC(=O)O)C4)ccc3c2C(F)(F)F)CC1 (stereo partly shown) [Example 8],≥ 6.30
4,"C[C@H]1CC[C@@H](Oc2ccc3cc(CN4CCCC(CC(=O)O)C4)ccc3c2C(F)(F)F)CC1 (stereo partly drawn) [Example 9, 2-(1-((6-((cis-4-methylcyclohexyl)oxy)-5-(trifluoromethyl)naphthalen-2-yl)methyl)piperidin-3-yl)acetic acid]",≥ 6.60
5,"O=C(O)CCC1CCC(NCc2ccc3c(C(F)(F)F)c(OC4CCC(C(F)(F)F)CC4)ccc3c2)CC1 (stereo not drawn) [Example 73, 3-((4-((5-(trifluoromethyl)-6-(cis-4-(trifluoromethyl)cyclohexyloxy)naphthalene-2-yl)methyl)amino)cyclohexyl)propionic acid]",≥ 6.30
6,"C[C@@H](c1ccc2c(C(F)F)c(O[C@H]3CC[C@@H](C)CC3)ccc2c1)N1CCC(C(=O)O)CC1 [Example 61, 1-((S)-1-(6-((cis-4-Methylcyclohexyl)oxy)-5-(difluoromethyl)naphthalen-2-yl)ethyl)piperidine-4-carboxylic acid]",≥ 6.60
7,"CCC(c1ccc2c(C(F)(F)F)c(O[C@H]3CC[C@@H](CC)CC3)ccc2c1)N1CCC[C@H](CC(=O)O)C1 (stereo partly drawn) [Example 7, 2-((3R)-1-(1-(6-((cis-4-ethylcyclohexyl)oxy)-5-(trifluoromethyl)naphthalen-2-yl)propyl)piperidin-3-yl)acetic acid]",≥ 7.00
8,"CC(C)CC(NC1CC(C(=O)O)C1(C)C)c1ccc2c(C(F)(F)F)c(O[C@H]3CC[C@@H](C)CC3)ccc2c1 (relative stereo) [Example 90, 2,2-dimethyl-3-(1-(6-((cis)-4-methylcyclohexyloxy)-5-(trifluoromethyl)naphthalen-2-yl)-3-methylbutylamino)cyclobutanecarboxylic acid]",≥ 6.30
9,"CC[C@H](c1ccc2c(C(F)F)c(O[C@H]3CC[C@@H](C)CC3)ccc2c1)N1CCC[C@H](CC(=O)O)C1 [Example 94, 2-((3R)-1-((R)-1-(6-((cis-4-Methylcyclohexyl)oxy)-5-(difluoromethyl)naphthalen-2-yl)propyl)piperidin-3-yl)acetic acid]",≥ 7.00
10,"CCC(NC1CC(C(=O)O)C1(C)C)c1ccc2c(C(F)(F)F)c(O[C@H]3CC[C@@H](C)CC3)ccc2c1 (relative stereo) [Example 36, 2,2-dimethyl-3-(1-(6-((cis)-4-methylcyclohexyloxy)-5-(trifluoromethyl)naphthalen-2-yl)propylamino)cyclobutanecarboxylic acid]",≥ 6.30
11,"O=C(O)C1CCCN(Cc2ccc3c(C(F)(F)F)c(O[C@H]4CC[C@@H](C(F)(F)F)CC4)ccc3c2)CC1 (relative stereo) [Example 76, 1-((5-(trifluoromethyl)-6-((cis-4-(trifluoromethyl)cyclohexyl)oxy)-naphthalen-2-yl)methyl)azepane-4-carboxylic acid]",≥ 6.30
12,"CC(C(=O)O)[C@H]1CCCN(Cc2ccc3c(C(F)(F)F)c(O[C@H]4CC[C@@H](C(F)(F)F)CC4)ccc3c2)C1 (mixture of isomers) [Example 102, (S)-2-((R)-1-((5-(trifluoromethyl)-6-((cis-4-(trifluoromethyl)cyclohexyl)oxy)naphthalen-2-yl)methyl)piperidin-3-yl)propanoic acid]",≥ 6.60
13,"O=C(O)[C@H]1CC[C@@H](NCc2ccc3c(C(F)(F)F)c(O[C@H]4CC[C@@H](C(F)(F)F)CC4)ccc3c2)CC1 [Example 70, cis-4-(((5-(trifluoromethyl)-6-((cis)-4-(trifluoromethyl)cyclohexyloxy)naphthalene-2-yl)methyl)amino)cyclohexane-1-carboxylic acid]",≥ 6.30
14,"O=C(O)C1CC(O)CN(Cc2ccc3c(C(F)(F)F)c(O[C@H]4CC[C@@H](C(F)(F)F)CC4)ccc3c2)C1 (relative stereo) [Example 81, 1-((5-(trifluoromethyl)-6-(cis-4-(trifluoromethyl)cyclohexyloxy)naphthalene-2-yl)methyl)-5-hydroxypiperidine-3-carboxylic acid]",≥ 6.60
15,"C[C@@H](c1ccc2c(C(F)F)c(O[C@H]3CC[C@@H](C)CC3)ccc2c1)N1CCC[C@@H](CC(=O)O)C1 [Example 100, 2-((S)-1-((S)-1-(2-(cis-4-methylcyclohexyloxy)-1-(difluoromethyl)naphthalen-6-yl)ethyl)piperidin-3-yl)acetic acid]",≥ 7.00
16,"O=C(O)CC1CCN(Cc2ccc3c(C(F)(F)F)c(O[C@H]4CC[C@@H](C(F)(F)F)CC4)ccc3c2)C1 (relative stereo) [Example 64, 1-((5-(trifluoromethyl)-6-((cis-4-(trifluoromethyl)cyclohexyl)oxy)-naphthalen-2-yl)methyl)pyrrolidine-3-acetic acid]",≥ 6.60
17,"CCC(c1ccc2c(C(F)F)c(O[C@H]3CC[C@@H](C)CC3)ccc2c1)N1CC(CC(=O)O)C1 (relative stereo) [Example 99, 1-(1-(5-(Difluoromethyl)-6-((cis-4-methylcyclohexyl)oxy)naphthalen-2-yl)propyl)azetidine-3-acetic acid]",≥ 7.00
18,"O=C(O)C1CCCN(C(=O)c2ccc3c(C(F)(F)F)c(O[C@H]4CC[C@@H](C(F)(F)F)CC4)ccc3c2)CC1 (relative stereo) [Example 31, 1-(5-(trifluoromethyl)-6-((cis)-4-(trifluoromethyl)cyclohexyloxy)-2-naphthoyl)azepane-4-carboxylic acid]",≥ 6.30
19,"CC1(C)C(NCc2ccc3c(C(F)F)c(O[C@H]4CC[C@@H](C(F)(F)F)CC4)ccc3c2)CC1C(=O)O (relative stereo) [Example 33, 3-((5-(difluoromethyl)-6-((cis)-4-(trifluoromethyl)cyclohexyloxy)naphthalen-2-yl)methylamino)-2,2-dimethylcyclobutanecarboxylic acid]",≥ 6.30
20,"O=C(O)c1ccc(CNC(=O)c2ccc3c(C(F)(F)F)c(O[C@H]4CC[C@@H](C(F)(F)F)CC4)ccc3c2)nc1 [Example 23, 6-((5-(trifluoromethyl)-6-((cis)-4-(trifluoromethyl)cyclohexyloxy)-2-naphthamido)methyl)nicotinic acid]",≥ 6.30
21,"O=C(O)C[C@H]1CCCN(Cc2ccc3c(C(F)(F)F)c(OC4CCC(F)(F)CC4)ccc3c2)C1 [Example 4, (R)-2-(1-((6-((4,4-difluorocyclohexyl)oxy)-5-(trifluoromethyl)naphthalen-2-yl)methyl)piperidin-3-yl)acetic acid]",≥ 6.30
22,"CCC(c1ccc2c(C(F)F)c(O[C@H]3CC[C@@H](C)CC3)ccc2c1)N1CCC(C(=O)O)CC1 (relative stereo) [Example 58, 1-(1-(6-((cis-4-Methylcyclohexyl)oxy)-5-(difluoromethyl)naphthalen-2-yl)propyl)piperidine-4-carboxylic acid]",≥ 7.00
23,"CC(c1ccc2c(C(F)F)c(O[C@H]3CC[C@@H](C)CC3)ccc2c1)N1CCC[C@H](CC(=O)O)C1 (stereo partly drawn) [Example 53, 2-((3R)-1-(1-(6-((cis-4-Methylcyclohexyl)oxy)-5-(difluoromethyl)naphthalen-2-yl)ethyl)piperidin-3-yl)acetic acid]",≥ 7.00
24,"C[C@H](c1ccc2c(C(F)(F)F)c(O[C@H]3CC[C@@H](C)CC3)ccc2c1)N1CCC[C@H](CC(=O)O)C1 [Example 96, 2-((3R)-1-((R)-1-(6-((cis-4-Methylcyclohexyl)oxy)-5-(trifluoromethyl)naphthalen-2-yl)ethyl)piperidin-3-yl)acetic acid]",≥ 7.00
25,"O=C(O)CC1CCCN(Cc2ccc3c(C(F)(F)F)c(O[C@H]4CC[C@@H](C(F)(F)F)CC4)ccc3c2)C1 (relative stereo) [Example 67, 1-((5-(trifluoromethyl)-6-((cis-4-(trifluoromethyl)cyclohexyl)oxy)-naphthalen-2-yl)methyl)piperidine-3-acetic acid]",≥ 6.60
